{
  "source": "patent US20040176294A1",
  "about": "“Use of thyroid-stimulating hormone to induce lipolysis” (priority 2003, published 2004)",
  "key": {"male ob/ob mice [1]": {"tested_on": "male ob/ob mice", "assay": "Chronic treatment of ob/ob mice: body weight and food intake", "type": "in vivo", "conditions": "daily IP treatment, 28 days", "protocol": "(§1) 11-week old male ob/ob mice were individually caged and given a standard lab chow (4% fat) with free access to food and water. Animals were assigned to a treatment group (n=7-8, average weight 54.3+/−0.3 g per group), kept on a 12 hour dark cycle (6 PM to 6 AM), and injected each day between 7 and 9 AM. Chow consumed by each animal was weighed twice weekly. All animals received treatments IP with an injection volume of 0.1 ml. […] Thyroid hormone (T4) was administered at 1.5 μg/mouse for 4 days, reduced to 1 [μg/mouse for 10 days, and returned to 1.5 μg/mouse for the next 14 days. The vehicle controls received sterile saline.\nBody weight changes were assessed as the percentage increase in body weight from the beginning of the study."}, "male ob/ob mice [2]": {"tested_on": "male ob/ob mice", "assay": "Chronic treatment of ob/ob mice: adipose tissue depot mass", "type": "in vivo", "conditions": "after 4 weeks of treatment, n=4", "protocol": "as §1\nFour animals from each group were analyzed for evaluation of changes in adipose tissue depot mass after 4 weeks of treatment. Following sacrifice, brown scapular fat (IBAT) and intra-abdominal fat were dissected and the tissues weighed. […] Elevated thyroid hormone levels are known to act to stimulate]BAT. […] The mesangial fat depot was dissected and removed from the colon for weight determination. Mesangial fat is white adipose tissue and is only readily visualized and dissected in obese mice. Mesangial white fat was removed by carefully stripping the fat, associated matrix and vascular supporting bed from the length of the colon."}, "male ob/ob mice [3]": {"tested_on": "male ob/ob mice", "assay": "Chronic treatment of ob/ob mice: serum lipid analysis", "type": "in vivo", "conditions": "5 weeks of treatment, fasted 4 hours", "protocol": "as §1\nThe study set used for the IPGTT was treated an additional 7 days before sacrifice (total treatment time of 5 weeks). Subject animals were fasted for 4 hours at the beginning of the light cycle, and serum was obtained at sacrifice under isoflurane anesthesia. Triglyceride and total cholesterol levels were determined with the Cholestech LDX blood analyzer (Cholestech Corporation, Hayward Calif.)."}, "male ob/ob mice [4]": {"tested_on": "male ob/ob mice", "assay": "Chronic treatment of ob/ob mice: intraperitoneal glucose tolerance test (IPGTT)", "type": "in vivo", "conditions": "4 weeks of treatment; for baseline blood glucose: fasted four hours, n=4; for insulin sensitivity and glucose clearance versus vehicle: IPGTT glucose […]", "protocol": "as §1\nFollowing 4 weeks of daily treatment as described above, mice (n=4/group) were fasted for four hours immediately following the beginning of the light cycle, and a blood sample obtained before IP injection of a glucose solution (1.5 g/kg body weight). Blood samples were obtained at 20, 40, and 120 minutes following injection to evaluate changes in serum glucose and insulin. Glucose concentrations were determined with a Freestyle blood glucose monitor (Therasense Corp.), and insulin concentrations were determined with a commercial ELISA kit (Alpco Diagnostics, Windham N. H.)."}, "male ob/ob mice [5]": {"tested_on": "male ob/ob mice", "assay": "Chronic treatment of ob/ob mice: liver steatosis histology score", "type": "in vivo", "conditions": "H&E sections, n=4, vehicle score 4", "protocol": "as §1\nLiver sections were dissected from all treatment groups described above and mounted in paraffin following fixation with NBS-formalin. Sections were mounted and stained with hematotoxylin and eosin (H&E) for visualization of hepatic structural changes. The extent of liver steatosis was evaluated on a four-point scale, […], with zero displaying no signs of liver steatotosis, and 4, representing pronounced macrovesicular and microvesicular steatosis."}, "in vivo": {"assay": "in vivo", "parameters": "species or system mice", "conditions": "male, ob/ob, mouse", "protocol": "as §1\n(§2) After 25 days of treatment as described above, blood was sampled from all treated animals (n=7-8/group), serum separated, and analyzed for total T4 by a commercially available kit (Biocheck, Burlingame, Calif.)."}, "[6]": {"tested_on": "differentiated 3T3 L1 adipocytes", "assay": "CRE-luciferase reporter (cAMP) assay in differentiated 3T3 L1 adipocytes", "type": "cell-based, murine", "conditions": "differentiated 3T3 L1 cells, 4 hours", "text": "(§3) 3T3 L1 fibroblasts were differentiated into adipocytes and the cells were transduced with recombinant adenovirus containing a reporter construct, a firefly luciferase gene under the control of cAMP response element (CRE) enhancer sequences. This assay system detects cAMP-mediated gene induction downstream of activation of Gs-coupled G-protein coupled receptors (GPCR's). […] In a separate experiment, undifferentiated 3T3 L1 fibroblasts were transduced with the recombinant adenovirus. […] In another experiment, human primary adipocytes were also transduced with the recombinant adenovirus containing a reporter construct.\n(§4) Cells were cultured at 37° C. in an 8% CO2 humidified incubator. Cells were seeded in collagen-coated 96-well plates (Becton Dickinson, cat. # 356407) at a density of 5,000 cells per well. Two days later, differentiation medium was added as follows: DMEM high glucose containing 10% fetal bovine serum (Hyclone, cat. # SH30071), 1 μg/ml insulin, 1 μM dexamethasone, and 0.5 mM 3-isobutyl-methyl xanthine (ICN, cat. #195262). The cells were incubated at 37° C. in 8% CO2 for 4 days and the medium replaced with DMEM high glucose containing 10% fetal bovine serum and 1 μg/ml insulin. The cells were incubated at 37° C. in 8% CO2 for 3 days, then the medium was replaced with DMEM high glucose containing 10% fetal bovine serum."}, "human primary adipocytes": {"tested_on": "human primary adipocytes", "assay": "CRE-luciferase reporter (cAMP) assay in primary human adipocytes", "type": "cell-based", "conditions": "4 hours", "text": "as §3, §4"}, "male ob/ob mice [7]": {"tested_on": "male ob/ob mice", "assay": "in vivo", "conditions": "mouse", "protocol": "as §1, §2"}, "male ob/ob mice [8]": {"tested_on": "male ob/ob mice", "assay": "Acute stimulation of lipolysis in vivo (serum glycerol and FFA)", "conditions": "CL 1 mg/kg IP", "experimental": "TSH, the β3-adrenoreceptor agonist CL 316,243 (CL), and saline vehicle were examined for stimulation of lipolysis in mice following an overnight fast. […] Lipolysis was assessed as the change in serum glycerol or FFA compared to baseline.\nC57BL/6 male ob/ob mice, age 10 weeks, were grouped to normalize weight (n=7-8 for each treatment; average group weight=37.8 g+/−0.4 g). Mice were housed individually for 18 hours prior to treatment, at which time food was withdrawn, with free access to water given. At approximately 8 a.m., the subjects were anesthetized with halothane and blood samples taken by retro-orbital eye bleeds. The blood was allowed to clot, and the serum was separated by centrifugation and frozen for later analysis. Test substances were administered by IP injection in a volume of 0.1 ml, and the animals replaced in their cages for 2 hours with free access to water. At 2 hours, the mice were sacrificed and blood drawn by cardiac puncture.\nFor measuring free fatty acids in serum, the method previously described for measuring free fatty acids in conditioned medium was followed, with the following modifications. […] The absorbance at 530 nm was measured on the Wallac Victor2 Multilabel counter. […]\nSigma reagent A was reconstituted to 0.5× the recommended concentration. […] The absorbance at 530 nm was measured on the Wallac Victor2 Multilabel counter."}},
  "data": [
    {"smiles": "N[C@@H](Cc1cc(I)c(Oc2cc(I)c(O)c(I)c2)c(I)c1)C(=O)O", "note": "[thyroxine]", "values": [
      {"measurement": "percentage increase in body weight from the beginning of the study", "setting": "male ob/ob mice [1]", "value": "9.4+/−0.5%"},
      {"measurement": "brown scapular fat (IBAT) mass", "setting": "male ob/ob mice [2]", "value": "1.26 ± 0.03", "unit": "g"},
      {"measurement": "mesangial white fat depot weight", "setting": "male ob/ob mice [2]", "value": "1.18 ± 0.11", "unit": "g"},
      {"measurement": "serum triglyceride", "setting": "male ob/ob mice [3]", "value": "297 ± 30", "unit": "mg/dL"},
      {"measurement": "total cholesterol", "setting": "male ob/ob mice [3]", "value": "231 ± 11", "unit": "mg/dL"},
      {"measurement": "baseline blood glucose", "setting": "male ob/ob mice [4]", "value": "252 ± 34", "unit": "mg/dL"},
      {"measurement": "insulin sensitivity and glucose clearance versus vehicle", "setting": "male ob/ob mice [4]", "value": "did not exhibit increased glucose clearance"},
      {"measurement": "average liver steatosis score", "setting": "male ob/ob mice [5]", "value": 3},
      {"measurement": "concentration at 25 days", "setting": "in vivo", "value": 90.4, "unit": "ng/mL"}
    ]},
    {"smiles": "CC(C)NCC(O)c1ccc(O)c(O)c1", "note": "(centres unmarked) [isoproterenol]", "values": [
      {"measurement": "induction of luciferase expression", "setting": "[6]", "value": 50, "unit": "fold"},
      {"measurement": "induction of luciferase expression / reporter gene", "setting": "human primary adipocytes", "value": 22, "unit": "fold"}
    ]},
    {"smiles": "C[C@H](Cc1ccc2c(c1)OC(C(=O)[O-])(C(=O)[O-])O2)NC[C@H](O)c1cccc(Cl)c1.[Na+].[Na+]", "note": "[CL 316,243]", "values": [
      {"measurement": "brown scapular fat (IBAT) mass", "setting": "male ob/ob mice [2]", "value": "0.87 ± 0.03", "unit": "g"},
      {"measurement": "mesangial white fat depot weight", "setting": "male ob/ob mice [2]", "value": "1.53 ± 0.10", "unit": "g"},
      {"measurement": "serum triglyceride", "setting": "male ob/ob mice [3]", "value": "191 ± 9", "unit": "mg/dL"},
      {"measurement": "total cholesterol", "setting": "male ob/ob mice [3]", "value": "198 ± 7", "unit": "mg/dL"},
      {"measurement": "baseline blood glucose", "setting": "male ob/ob mice [4]", "value": "139 ± 9", "unit": "mg/dL"},
      {"measurement": "insulin sensitivity and glucose clearance versus vehicle", "setting": "male ob/ob mice [4]", "value": "exhibited increased insulin sensitivity and increased clearance of the glucose load"},
      {"measurement": "average liver steatosis score", "setting": "male ob/ob mice [5]", "value": 1},
      {"measurement": "total T4 in serum", "setting": "male ob/ob mice [7]", "value": "5.14 ± 0.19", "unit": "µg/dL"},
      {"measurement": "serum glycerol and FFA levels", "setting": "male ob/ob mice [8]", "value": "significantly elevated serum glycerol and FFA levels"}
    ]}
  ]
}
